In US11629171B2, “Beta-hairpin peptidomimetics” (POLYPHOR AG, priority 2017, dated 2023):
≈ marks a conversion by molar mass, not a printed value. Where a SMILES comes first, the peptide text is derived from it. Bridges are numbered along the chain shown (N, C = ends). Roman numbers before positions name the chains, in order. [ ]: non-standard residue; d: D form. The star is where a group is joined. Leu(3R-OH) = CC(C)[C@@H](O)[C@H](N)C(=O)O; Thr(ol) = C[C@@H](O)[C@H](N)CO; Tle = CC(C)(C)[C@H](N)C(=O)O; Hiv = CC(C)[C@H](O)C(=O)O; dDab = NCC[C@@H](N)C(=O)O; hSer = N[C@@H](CCO)C(=O)O; Isobutyryl = CC(C)C(=O)*; Nle = CCCC[C@H](N)C(=O)O; Dab = NCC[C@H](N)C(=O)O; Nva = CCC[C@H](N)C(=O)O; Dap = NC[C@H](N)C(=O)O

Legend:
Format in all cases: cell-based
[1] = system: human red blood cells (hRBC); assay: Hemolysis; details: red cells of human, 1 h, 200
Method in brief: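 Percent hemolysis relative to 2% Triton X-100 (100%) and PBS/10% water (0%), from blank-corrected OD540 of diluted supernatants. Peptides tested at 200 μg/mL against 20% (v/v) washed human erythrocytes, 1 h, 37° C, shaking at 300 rpm.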

[2] = system: Klebsiella pneumoniae SSI #3010; details: SSI #3010
Method in brief: (§1)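 Visible-growth endpoint after 18-20 h at 35° C defines the MIC (μg/mL). Setup: CLSI broth microdilution, MH-II cation-adjusted broth with P-80 at 0.002% final, inoculum of approximately 10^6 CFU/mL, two-fold serial peptide dilutions.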

[3] = system: Klebsiella pneumoniae 968733; details: 968733
Method in brief: as §1

Escherichia coli 926415 = details: 926415
Method in brief: as §1

[4] = system: Acinetobacter baumannii 872842; details: 872842
Method in brief: as §1

[5] = system: Escherichia coli ATCC 25922; details: ATCC 25922
Method in brief: as §1

[6] = system: Acinetobacter baumannii DSM 30008; details: DSM 30008
Method in brief: as §1

[7] = system: Enterobacter cloacae 848840; details: 848840
Method in brief: as §1

[8] = system: Pseudomonas aeruginosa ATCC 27853; details: ATCC 27853
Method in brief: as §1

| SMILES | Hemolysis at 200 μg/mL [1] [%] | Klebsiella pneumoniae SSI #3010 MIC [2] [µg/mL] | MIC [3] [µg/mL] | MIC (Escherichia coli 926415) [µg/mL] | MIC [4] [µg/mL] | Escherichia coli ATCC 25922 MIC [5] [µg/mL] | Acinetobacter baumannii DSM 30008 MIC [6] [µg/mL] | MIC [7] [µg/mL] | Pseudomonas aeruginosa ATCC 27853 MIC [8] [µg/mL] | MIC [2] [µg/mL] | MIC [5] [µg/mL] | MIC [6] [µg/mL] | MIC [8] [µg/mL] |
| --- | --- | --- | --- | --- | --- | --- | --- | --- | --- | --- | --- | --- | --- |
| CCC[C@@H]1NC(=O)[C@@H](CC(C)C)NC(=O)[C@H](CCN)NC(=O)[C@@H](NC(=O)[C@H](CN)NC(=O)[C@@H](NC(=O)[C@H](CCN)NC(=O)CC[C@@H]2NC(=O)[C@H](CCN)NC(=O)[C@H](Cc3ccc(O)cc3)NC(=O)[C@@H](NC(=O)[C@@H](NC(C)=O)C(C)C)CSSC[C@@H](C(=O)N[C@@H](CO)C(N)=O)NC(=O)[C@H](C(C)C)NC(=O)[C@H](CO)NC(=O)[C@H](Cc3c[nH]c4ccccc34)NC(=O)[C@H](CO)NC(=O)[C@@H](CCN)NC2=O)[C@@H](C)O)CCNC(=O)[C@H]([C@@H](C)O)NC(=O)[C@H](CCN)NC(=O)[C@H](CCN)NC1=O [Ex. 313] (I: Ac-VCY[Dab]E[dDab]SWSVCS-NH2 / II: [Dab]T[Dap][Dab][Dab][dL][Nva][Dab][Dab]T; disulfide I:2-I:11; amide I:5-II:N; lactam II:4-II:C) | <1 | 0.0625 | 0.125 (≈ 0.0524 µM) | 0.125 (≈ 0.0524 µM) | 0.125 (≈ 0.0524 µM) | 0.01562 | 0.03125 | 0.0625 (≈ 0.0262 µM) | 0.125 |  |  |  |  |
| CC(C)C[C@@H]1NC(=O)[C@@H](CC(C)C)NC(=O)[C@H](CCN)NC(=O)[C@@H](NC(=O)[C@H](CCN)NC(=O)[C@@H](NC(=O)[C@H](CCN)NC(=O)CC[C@@H]2NC(=O)[C@H](CCN)NC(=O)[C@H](Cc3ccc(O)cc3)NC(=O)[C@@H](NC(=O)[C@@H](NC(=O)[C@H](N)CO)C(C)C)CSSC[C@@H](C(=O)N[C@@H](CO)C(=O)N[C@H](CO)C(=O)O)NC(=O)[C@H](C(C)(C)C)NC(=O)[C@H](CO)NC(=O)[C@H](Cc3c[nH]c4ccccc34)NC(=O)[C@H]([C@@H](C)O)NC(=O)[C@@H](CCN)NC2=O)[C@@H](C)O)CCNC(=O)[C@H]([C@@H](C)O)NC(=O)[C@H](CCN)NC(=O)[C@H](CCN)NC1=O [Ex. 242] (I: H-[dS]VCY[Dab]E[dDab]TWS[Tle]CS[dS]-OH / II: [Dab]T[Dab][Dab][Dab][dL]L[Dab][Dab]T; disulfide I:3-I:12; amide I:6-II:N; lactam II:4-II:C) | <1 |  | 1 (≈ 0.389 µM) | 0.25 (≈ 0.0971 µM) | 0.125 (≈ 0.0486 µM) |  |  | 4 (≈ 1.55 µM) |  | 0.125 (≈ 0.0486 µM) | 0.0625 (≈ 0.0243 µM) | 0.125 (≈ 0.0486 µM) | 0.125 (≈ 0.0486 µM) |
| CCCC[C@@H]1NC(=O)[C@H](CO)NC(=O)[C@H](Cc2c[nH]c3ccccc23)NC(=O)[C@H](CO)NC(=O)[C@@H](CCN)NC(=O)[C@H](CCC(=O)N[C@@H](CCN)C(=O)N[C@H](C(=O)N[C@@H](CN)C(=O)N[C@H]2CCNC(=O)[C@H]([C@@H](C)O)NC(=O)[C@H](CCN)NC(=O)[C@H](CCN)NC(=O)[C@H](CC(C)C)NC(=O)[C@@H](CC(C)C)NC(=O)[C@H](CCN)NC2=O)[C@@H](C)O)NC(=O)[C@H](CCN)NC(=O)[C@H](Cc2ccc(O)cc2)NC(=O)[C@@H](NC(=O)[C@@H](NC(C)=O)C(C)C)CCNC(=O)C[C@@H](C(=O)N[C@@H](CO)C(N)=O)NC1=O [Ex. 325] (I: Ac-V[Dab]Y[Dab]E[dDab]SWS[Nle]DS-NH2 / II: [Dab]T[Dap][Dab][Dab][dL]L[Dab][Dab]T; lactam I:2-I:11, II:4-II:C; amide I:5-II:N) | <1 | 0.0625 | 0.5 (≈ 0.208 µM) | 0.125 (≈ 0.052 µM) | 0.125 (≈ 0.052 µM) | 0.0625 | 0.0625 | 0.0625 (≈ 0.026 µM) | 0.125 |  |  |  |  |
| CC(C)C[C@@H]1NC(=O)[C@@H](CC(C)C)NC(=O)[C@H](CCN)NC(=O)[C@@H](NC(=O)[C@H](CN)NC(=O)[C@@H](NC(=O)[C@H](CCN)NC(=O)CC[C@@H]2NC(=O)[C@@H](CCN)NC(=O)CNC(=O)[C@@H](NC(=O)[C@H](Cc3ccc(O)cc3)NC(=O)[C@@H](NC(=O)[C@@H](O)C(C)C)[C@@H](C)O)CSSC[C@@H](C(=O)N[C@H](C(=O)N[C@@H](C)C(=O)N[C@H](CO)[C@@H](C)O)C(C)(C)C)NC(=O)[C@H](Cc3c[nH]c4ccccc34)NC2=O)[C@@H](C)O)CCNC(=O)[C@H]([C@@H](C)O)NC(=O)[C@H](CCN)NC(=O)[C@H](CCN)NC1=O [Ex. 213] (I: H-[Hiv]TYCG[dDab]EWC[Tle]A[Thr(ol)] / II: [Dab]T[Dap][Dab][Dab][dL]L[Dab][Dab]T; disulfide I:4-I:9; amide I:7-II:N; lactam II:4-II:C) | <1 |  | 0.5 (≈ 0.215 µM) | 0.5 (≈ 0.215 µM) | 0.125 (≈ 0.0537 µM) |  |  | 1 (≈ 0.43 µM) |  | 0.125 (≈ 0.0537 µM) | 0.125 (≈ 0.0537 µM) | 0.0625 (≈ 0.0268 µM) | 0.25 (≈ 0.107 µM) |
| CC(C)C[C@@H]1NC(=O)[C@@H](CC(C)C)NC(=O)[C@H](CCN)NC(=O)[C@@H](NC(=O)[C@H](CCN)NC(=O)[C@H](CO)NC(=O)[C@H](CCN)NC(=O)CC[C@@H]2NC(=O)[C@H](CN)NC(=O)[C@H](Cc3ccc(O)cc3)NC(=O)[C@@H](NC(=O)[C@@H](O)C(C)C)CSSC[C@@H](C(=O)N[C@H](CO)[C@@H](C)O)NC(=O)[C@H](C(C)(C)C)NC(=O)[C@H](CO)NC(=O)[C@H](Cc3c[nH]c4ccccc34)NC(=O)[C@H]([C@@H](C)O)NC(=O)[C@@H](CCN)NC2=O)CCNC(=O)[C@H]([C@@H](C)O)NC(=O)[C@H](CCN)NC(=O)[C@H](CCN)NC1=O [Ex. 106] (I: H-[Hiv]CY[Dap]E[dDab]TWS[Tle]C[Thr(ol)] / II: [Dab]S[Dab][Dab][Dab][dL]L[Dab][Dab]T; disulfide I:2-I:11; amide I:5-II:N; lactam II:4-II:C) | <1 |  | 0.25 (≈ 0.105 µM) | 0.125 (≈ 0.0527 µM) | 0.25 (≈ 0.105 µM) |  |  | 0.25 (≈ 0.105 µM) |  | 0.125 (≈ 0.0527 µM) | 0.0625 (≈ 0.0263 µM) | 0.0625 (≈ 0.0263 µM) | 0.125 (≈ 0.0527 µM) |
| CC(C)C[C@@H]1NC(=O)[C@@H](CC(C)C)NC(=O)[C@H](CCN)NC(=O)[C@@H](NC(=O)[C@H](CCN)NC(=O)[C@@H](NC(=O)[C@H](CCN)NC(=O)CC[C@@H]2NC(=O)[C@H](CCN)NC(=O)[C@H](Cc3ccc(O)cc3)NC(=O)[C@@H](NC(=O)C(C)C)CSSC[C@@H](C(=O)N[C@H](CO)[C@@H](C)O)NC(=O)[C@H](C(C)(C)C)NC(=O)[C@H](CO)NC(=O)[C@H](Cc3c[nH]c4ccccc34)NC(=O)[C@H](CCO)NC(=O)[C@@H](CCN)NC2=O)[C@@H](C)O)CCNC(=O)[C@H]([C@@H](C)O)NC(=O)[C@H](CCN)NC(=O)[C@H](CCN)NC1=O [Example 3] (I: Isobutyryl-CY[Dab]E[dDab][hSer]WS[Tle]C[Thr(ol)] / II: [Dab]T[Dab][Dab][Dab][dL]L[Dab][Dab]T; disulfide I:1-I:10; amide I:4-II:N; lactam II:4-II:C) | <1 |  | 0.25 (≈ 0.105 µM) | 0.25 (≈ 0.105 µM) | 0.125 (≈ 0.0527 µM) |  |  | 2 (≈ 0.844 µM) |  | 0.125 (≈ 0.0527 µM) | 0.125 (≈ 0.0527 µM) | 0.0625 (≈ 0.0264 µM) | 0.125 (≈ 0.0527 µM) |
| CC(=O)N[C@H](C(=O)N[C@H]1CCN(C)C(=O)C[C@@H](C(=O)N[C@@H](CO)C(N)=O)NC(=O)[C@H](C(C)C)NC(=O)[C@H](CO)NC(=O)[C@H](Cc2c[nH]c3ccccc23)NC(=O)CNC(=O)[C@@H](CCN)NC(=O)[C@H](CCC(=O)N[C@@H](CCN)C(=O)N[C@H](C(=O)N[C@@H](CN)C(=O)N[C@H]2CCNC(=O)[C@H]([C@@H](C)O)NC(=O)[C@H](CCN)NC(=O)[C@H](CCN)NC(=O)[C@H](CC(C)C)NC(=O)[C@@H](CC(C)C)NC(=O)[C@H](CCN)NC2=O)[C@@H](C)O)NC(=O)[C@H](CCN)NC(=O)[C@H](Cc2ccc(O)cc2)NC1=O)C(C)C [Ex. 348] | <1 | 0.0625 | 2 (≈ 0.842 µM) | 0.5 (≈ 0.21 µM) | 0.5 (≈ 0.21 µM) | 0.0625 | 0.125 | 0.5 (≈ 0.21 µM) | 0.125 |  |  |  |  |
| CC(=O)N[C@@H](CCN)C(=O)N[C@H](C(=O)N[C@H](C(=O)N[C@@H](Cc1ccc(O)cc1)C(=O)N[C@H]1CSSC[C@@H](C(=O)N[C@H](C(=O)N[C@@H](C)C(=O)N[C@H](C(N)=O)C(C)C)C(C)(C)C)NC(=O)[C@H](Cc2c[nH]c3ccccc23)NC(=O)[C@H](CCN)NC(=O)[C@@H](CCN)NC(=O)[C@H](CCC(=O)N[C@@H](CCN)C(=O)N[C@H](C(=O)N[C@@H](CN)C(=O)N[C@H]2CCNC(=O)[C@H]([C@@H](C)O)NC(=O)[C@H](CCN)NC(=O)[C@H](CCN)NC(=O)[C@H](CC(C)C)NC(=O)[C@@H](CC(C)C)NC(=O)[C@H](CCN)NC2=O)[C@@H](C)O)NC1=O)[C@@H](C)O)[C@H](O)C(C)C [Ex. 240] (I: Ac-[Dab][Leu(3R-OH)]TYCE[dDab][Dab]WC[Tle]AV-NH2 / II: [Dab]T[Dap][Dab][Dab][dL]L[Dab][Dab]T; disulfide I:5-I:10; amide I:6-II:N; lactam II:4-II:C) | 1 |  | 0.5 (≈ 0.196 µM) | 0.0625 (≈ 0.0245 µM) | 0.0625 (≈ 0.0245 µM) |  |  | 0.125 (≈ 0.049 µM) |  | 0.125 (≈ 0.049 µM) | 0.0625 (≈ 0.0245 µM) | 0.03125 (≈ 0.0122 µM) | 0.25 (≈ 0.0979 µM) |
